From paper PMC8824665, “Rapid Assessment of Insect Steroid Hormone Entry Into Cultured Cells” (Frontiers in Physiology, 2022)
Read-outs that look alike come from different tables or passages of the source.

Target: T1, EcR-RXR (EcR-LgBiT / RXR-SmBiT) (Drosophila melanogaster, UniProt P34021)
T1 construct: full-length EcR with C-terminal LgBiT (pFC34K-EcR) and RXR with C-terminal SmBiT (pFC36K-RXR), expressed in HEK293T cells; heterodimer; probably human RXR-alpha
T1 sequence (P34021 1-878): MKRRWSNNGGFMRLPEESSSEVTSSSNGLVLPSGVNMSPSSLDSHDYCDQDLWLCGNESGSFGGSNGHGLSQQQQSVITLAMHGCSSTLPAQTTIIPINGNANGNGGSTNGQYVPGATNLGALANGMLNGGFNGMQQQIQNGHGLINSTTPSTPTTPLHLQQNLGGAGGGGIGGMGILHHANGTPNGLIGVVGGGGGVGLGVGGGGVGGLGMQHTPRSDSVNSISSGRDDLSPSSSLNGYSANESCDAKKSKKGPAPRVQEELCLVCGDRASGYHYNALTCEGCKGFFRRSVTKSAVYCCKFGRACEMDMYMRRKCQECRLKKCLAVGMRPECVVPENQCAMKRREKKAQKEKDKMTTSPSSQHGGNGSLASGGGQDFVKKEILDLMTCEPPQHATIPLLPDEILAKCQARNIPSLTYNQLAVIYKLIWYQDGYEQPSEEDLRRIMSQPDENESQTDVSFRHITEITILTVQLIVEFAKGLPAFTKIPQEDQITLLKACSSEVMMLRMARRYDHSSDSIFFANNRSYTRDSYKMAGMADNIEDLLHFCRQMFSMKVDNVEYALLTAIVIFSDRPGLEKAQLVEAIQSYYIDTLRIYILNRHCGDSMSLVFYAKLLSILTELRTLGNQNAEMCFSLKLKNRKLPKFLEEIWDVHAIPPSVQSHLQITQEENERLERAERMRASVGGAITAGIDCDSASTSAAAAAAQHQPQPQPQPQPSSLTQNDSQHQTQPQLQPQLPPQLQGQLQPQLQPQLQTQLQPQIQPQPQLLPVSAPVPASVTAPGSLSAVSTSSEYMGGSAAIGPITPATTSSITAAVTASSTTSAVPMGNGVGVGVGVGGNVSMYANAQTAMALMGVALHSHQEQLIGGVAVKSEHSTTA
T1 sequence (P19793 1-462 partner): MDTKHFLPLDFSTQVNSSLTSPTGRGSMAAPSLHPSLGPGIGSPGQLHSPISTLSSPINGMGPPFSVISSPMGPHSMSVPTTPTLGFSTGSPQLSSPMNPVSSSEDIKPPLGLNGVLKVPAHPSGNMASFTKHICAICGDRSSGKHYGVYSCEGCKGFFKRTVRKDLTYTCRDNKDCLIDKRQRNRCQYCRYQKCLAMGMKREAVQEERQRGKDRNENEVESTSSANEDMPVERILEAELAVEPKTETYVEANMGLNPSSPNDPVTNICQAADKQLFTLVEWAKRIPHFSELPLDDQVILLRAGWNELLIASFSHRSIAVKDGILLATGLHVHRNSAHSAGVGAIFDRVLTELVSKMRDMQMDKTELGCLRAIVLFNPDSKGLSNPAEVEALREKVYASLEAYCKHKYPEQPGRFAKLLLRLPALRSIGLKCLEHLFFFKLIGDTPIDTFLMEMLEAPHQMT
Test: NanoBiT split-luciferase assay of ligand-induced EcR-RXR heterodimerization in live HEK293T cells
Format: cell-based

EC50 (read-out: EC50)	SMILES	EC50
2.2 µM	CC(C)(O)CC[C@@H](O)[C@](C)(O)[C@H]1CC[C@@]2(O)C3=CC(=O)[C@@H]4C[C@@H](O)[C@@H](O)C[C@]4(C)[C@H]3CC[C@]12C [20E, 20-hydroxyecdysone]	
	Cc1cc(C)cc(C(=O)N(NC(=O)c2ccc3c(c2C)CCCO3)C(C)(C)C)c1 [CF, chromafenozide]	4.76 µM
